Measurements: paper PMC6019379, “RecA-like domain 2 of DNA-dependent ATPase A domain, a SWI2/SNF2 protein, mediates conformational integrity and ATP hydrolysis” (Bioscience Reports, 2018)

What was measured:
Type in all cases: binding
[1] = target: T1, ADAAD (Active DNA-dependent ATPase A domain) (Bos taurus, UniProt Q9TTA5, F727W); assay: intrinsic tryptophan fluorescence titration (ex […] nm, em […] nm), one-site fit
T1 construct: gene SMARCAL1; ATPase domain fragment of bovine SMARCAL1 (RecA-like domains 1 and 2), plasmid pCP101 (pET-14b, NdeI/XhoI), E. coli BL21(DE3), Ni-NTA then DEAE-sepharose; tag removal not mentioned
T1 sequence (Q9TTA5 221-940 F727W limits assumed): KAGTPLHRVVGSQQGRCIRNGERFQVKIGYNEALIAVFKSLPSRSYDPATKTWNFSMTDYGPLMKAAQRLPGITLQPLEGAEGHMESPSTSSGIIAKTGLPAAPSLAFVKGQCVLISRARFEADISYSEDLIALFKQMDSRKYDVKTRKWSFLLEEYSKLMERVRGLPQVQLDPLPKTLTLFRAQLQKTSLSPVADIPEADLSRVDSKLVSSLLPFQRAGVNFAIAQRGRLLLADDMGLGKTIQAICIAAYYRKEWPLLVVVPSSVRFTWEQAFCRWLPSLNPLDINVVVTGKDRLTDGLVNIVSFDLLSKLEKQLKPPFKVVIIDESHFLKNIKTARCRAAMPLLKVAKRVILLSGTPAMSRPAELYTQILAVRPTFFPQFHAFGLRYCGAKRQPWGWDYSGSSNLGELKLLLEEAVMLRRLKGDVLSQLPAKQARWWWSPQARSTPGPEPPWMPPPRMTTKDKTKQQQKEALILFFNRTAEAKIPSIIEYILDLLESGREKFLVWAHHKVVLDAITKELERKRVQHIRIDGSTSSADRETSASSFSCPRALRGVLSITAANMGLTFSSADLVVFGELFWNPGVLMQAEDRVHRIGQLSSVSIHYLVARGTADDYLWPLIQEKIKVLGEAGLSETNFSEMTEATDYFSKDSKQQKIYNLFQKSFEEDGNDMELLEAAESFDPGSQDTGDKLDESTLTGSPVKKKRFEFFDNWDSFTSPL

[2] = target: T2, ADAAD (Active DNA-dependent ATPase A domain) (Bos taurus, UniProt Q9TTA5, S778A); assay: as above
T2 construct: gene SMARCAL1; ATPase domain fragment of bovine SMARCAL1 (RecA-like domains 1 and 2), plasmid pCP101 (pET-14b, NdeI/XhoI), E. coli BL21(DE3), Ni-NTA then DEAE-sepharose; tag removal not mentioned
T2 sequence (Q9TTA5 221-940 S778A limits assumed): as the sequence (Q9TTA5 221-940 F727W limits assumed) above, with W507F, S558A counted along it

[3] = target: T3, ADAAD (Active DNA-dependent ATPase A domain) (Bos taurus, UniProt Q9TTA5, R815A); assay: as above
T3 construct: gene SMARCAL1; ATPase domain fragment of bovine SMARCAL1 (RecA-like domains 1 and 2), plasmid pCP101 (pET-14b, NdeI/XhoI), E. coli BL21(DE3), Ni-NTA then DEAE-sepharose; tag removal not mentioned
T3 sequence (Q9TTA5 221-940 R815A limits assumed): as the sequence (Q9TTA5 221-940 F727W limits assumed) above, with W507F, R595A counted along it

[4] = target: T4, ADAAD (Active DNA-dependent ATPase A domain) (Bos taurus, UniProt Q9TTA5, F727A/R812A); assay: as above
T4 construct: gene SMARCAL1; ATPase domain fragment of bovine SMARCAL1 (RecA-like domains 1 and 2), plasmid pCP101 (pET-14b, NdeI/XhoI), E. coli BL21(DE3), Ni-NTA then DEAE-sepharose; tag removal not mentioned
T4 sequence (Q9TTA5 221-940 F727A/R812A limits assumed): as the sequence (Q9TTA5 221-940 F727W limits assumed) above, with W507A, R592A counted along it

[5] = target: T5, ADAAD (Active DNA-dependent ATPase A domain) (Bos taurus, UniProt Q9TTA5, R812A); assay: as above
T5 construct: gene SMARCAL1; ATPase domain fragment of bovine SMARCAL1 (RecA-like domains 1 and 2), plasmid pCP101 (pET-14b, NdeI/XhoI), E. coli BL21(DE3), Ni-NTA then DEAE-sepharose; tag removal not mentioned
T5 sequence (Q9TTA5 221-940 R812A limits assumed): as the sequence (Q9TTA5 221-940 F727W limits assumed) above, with W507F, R592A counted along it

[6] = target: T6, ADAAD (Active DNA-dependent ATPase A domain) (Bos taurus, UniProt Q9TTA5, R815K); assay: as above
T6 construct: gene SMARCAL1; ATPase domain fragment of bovine SMARCAL1 (RecA-like domains 1 and 2), plasmid pCP101 (pET-14b, NdeI/XhoI), E. coli BL21(DE3), Ni-NTA then DEAE-sepharose; tag removal not mentioned
T6 sequence (Q9TTA5 221-940 R815K limits assumed): as the sequence (Q9TTA5 221-940 F727W limits assumed) above, with W507F, R595K counted along it

[7] = target: T7, ADAAD (Active DNA-dependent ATPase A domain) (Bos taurus, UniProt Q9TTA5, D811H/H549D); assay: as above
T7 construct: gene SMARCAL1; ATPase domain fragment of bovine SMARCAL1 (RecA-like domains 1 and 2), plasmid pCP101 (pET-14b, NdeI/XhoI), E. coli BL21(DE3), Ni-NTA then DEAE-sepharose; tag removal not mentioned
T7 sequence (Q9TTA5 221-940 H549D/D811H limits assumed): as the sequence (Q9TTA5 221-940 F727W limits assumed) above, with H329D, W507F, D591H counted along it

[8] = target: T8, ADAAD (Active DNA-dependent ATPase A domain) (Bos taurus, UniProt Q9TTA5, F727A); assay: as above
T8 construct: gene SMARCAL1; ATPase domain fragment of bovine SMARCAL1 (RecA-like domains 1 and 2), plasmid pCP101 (pET-14b, NdeI/XhoI), E. coli BL21(DE3), Ni-NTA then DEAE-sepharose; tag removal not mentioned
T8 sequence (Q9TTA5 221-940 F727A limits assumed): as the sequence (Q9TTA5 221-940 F727W limits assumed) above, with W507A counted along it

[9] = target: T9, ADAAD (Active DNA-dependent ATPase A domain) (Bos taurus, UniProt Q9TTA5, D811H); assay: as above
T9 construct: gene SMARCAL1; ATPase domain fragment of bovine SMARCAL1 (RecA-like domains 1 and 2), plasmid pCP101 (pET-14b, NdeI/XhoI), E. coli BL21(DE3), Ni-NTA then DEAE-sepharose; tag removal not mentioned
T9 sequence (Q9TTA5 221-940 D811H limits assumed): as the sequence (Q9TTA5 221-940 F727W limits assumed) above, with W507F, D591H counted along it

[10] = target: T10, ADAAD (Active DNA-dependent ATPase A domain) (Bos taurus, UniProt Q9TTA5, T780A); assay: as above
T10 construct: gene SMARCAL1; ATPase domain fragment of bovine SMARCAL1 (RecA-like domains 1 and 2), plasmid pCP101 (pET-14b, NdeI/XhoI), E. coli BL21(DE3), Ni-NTA then DEAE-sepharose; tag removal not mentioned
T10 sequence (Q9TTA5 221-940 T780A limits assumed): as the sequence (Q9TTA5 221-940 F727W limits assumed) above, with W507F, T560A counted along it

[11] = target: T11, ADAAD (Active DNA-dependent ATPase A domain) (Bos taurus, UniProt Q9TTA5, R815H); assay: as above
T11 construct: gene SMARCAL1; ATPase domain fragment of bovine SMARCAL1 (RecA-like domains 1 and 2), plasmid pCP101 (pET-14b, NdeI/XhoI), E. coli BL21(DE3), Ni-NTA then DEAE-sepharose; tag removal not mentioned
T11 sequence (Q9TTA5 221-940 R815H limits assumed): as the sequence (Q9TTA5 221-940 F727W limits assumed) above, with W507F, R595H counted along it

[12] = target: T12, ADAAD (Active DNA-dependent ATPase A domain) (Bos taurus, UniProt Q9TTA5); assay: intrinsic tryptophan fluorescence titration (ex […] nm, em […] nm); settings: representative spectra only
T12 construct: gene SMARCAL1; ATPase domain fragment of bovine SMARCAL1 (RecA-like domains 1 and 2), plasmid pCP101 (pET-14b, NdeI/XhoI), E. coli BL21(DE3), Ni-NTA then DEAE-sepharose; tag removal not mentioned
T12 sequence (Q9TTA5 221-940 limits assumed): as the sequence (Q9TTA5 221-940 F727W limits assumed) above, with W507F counted along it

[13] = target: T13, ADAAD (Active DNA-dependent ATPase A domain) (Bos taurus, UniProt Q9TTA5, H814A); assay: intrinsic tryptophan fluorescence titration (ex […] nm, em […] nm), one-site fit
T13 construct: gene SMARCAL1; ATPase domain fragment of bovine SMARCAL1 (RecA-like domains 1 and 2), plasmid pCP101 (pET-14b, NdeI/XhoI), E. coli BL21(DE3), Ni-NTA then DEAE-sepharose; tag removal not mentioned
T13 sequence (Q9TTA5 221-940 H814A limits assumed): as the sequence (Q9TTA5 221-940 F727W limits assumed) above, with W507F, H594A counted along it

- Kd [1]: 1000 nM
- Kd [2]: 1900 nM
- Kd [3]: 1200 nM
- Kd [4]: 1700 nM
- Kd [5]: 1600 nM
- Kd [6]: 1200 nM
- Kd [7]: 2800 nM
- Kd [8]: 1600 nM
- Kd [9]: 3200 nM
- Kd [10]: 1000 nM
- Kd [11]: 1300 nM
- Kd [13]: 1600 nM
SMILES: Nc1ncnc2c1ncn2[C@@H]1O[C@H](COP(=O)(O)OP(=O)(O)OP(=O)(O)O)[C@@H](O)[C@H]1O [ATP]
- intrinsic tryptophan fluorescence titration (ex 295 nm, em 340 nm) [12]: Representative fluorescence spectra of ADAAD titrated with (A). ATP; (B) DNA.
